{"source": "patent US20200078323A1", "about": "“METHOD OF TREATING OVARIAN CANCER USING ZETA-STAT” (University of South Florida, priority 2018, published 2020)", "key": {"TOV21G xenographs": {"test_system": "TOV21G xenographs", "assay": "TOV21G xenograph tumor growth in athymic female nude mice", "assay_type": "in vivo", "conditions": "20 mg/kg, every other day, subcutaneously intra-tumor and around the tumor site", "description": "(§1) FIGS. 5A-5C. In-vivo TOV21G xenographs treated with 1×DPBS (vehicle, N=6) and 20 mg/kg ζ-Stat (N=6) for 30 days. (FIG. 5A) Tumor growth (mm^3) for the control mice and the treatment mice. The graph at the bottom represents the average body weight of the mice throughout the treatment period. (FIG. 5B) Tumors extracted at the endpoint of the experiment. The graph below represents the size of tumors from the treatment group represented as the percentage of the control. (FIG. 5C) Enzyme panel tested after the endpoint of the experiment. The bars represent glucose, BUN, ALT, AST and ALKP levels.\n(§2) Effects of ζ-Stat on athymic mice ovarian xenograph were tested. Twelve athymic female nude mice weighing between 20-25 g and more than 10 weeks of age were used. The mice were divided into two groups after TOV21G cells (CRL-11730, American Type Culture Collection) were implanted (A million cells/mouse flank in 0.2 ml of media). The first group was the control group (n=6), which received 100 μl of DPBS (21-031-CM, Corning Cellgro, VA). The second group (n=6) received 100 μl of 20 mg/kg of ζ-Stat dissolved in DPBS. The tumor volume was calculated using the formula: length×width×width×½. Three days after implantation of the cells, the tumors were treated as of day 0. The treatments were administered every other day subcutaneously intra-tumor and around the tumor site for […]."}, "ES-2 cells": {"test_system": "ES-2 cells", "assay": "Proliferation of ES-2 cells treated with ζ-Stat (cellometer count, WST-1)", "assay_type": "cell-based", "conditions": "24, 48 and 72 hours, control DMSO", "description": "(§3) FIGS. 2A-2C. Proliferation curves for ES-2 cells treated with ζ-Stat. ES-2 cells were treated with ζ-Stat for 24, 48, and 72 hours. The control cells were treated with DMSO. (FIG. 2A) Treatments counted on a cellometer. (FIG. 2B) Standard curve for ES-2 cells in WST-1 reagent. (FIG. 2C) Treatments after 72 hours measured using WST-1 reagent.\n(§4) Ovarian cancer is the most lethal gynecological cancer. […] The most common ovarian cancer diagnosis is epithelial ovarian carcinomas, which constitute for 85-90% of prognosis. Of epithelial ovarian carcinomas, clear cell ovarian carcinoma (CCOC) represents 5% of incidence. CCOC presents unique pathological features and has a high reoccurrence rate after treatment. An overexpression of atypical PKCs (PKC-ζ and PKC-ι/λ) has been observed in various malignant cell lines and is linked to pathways for cellular proliferation and invasion. Ovarian cell lines (TOV21G and ES-2) were treated with the atypical PKC-ζ inhibitor ζ-Stat (8-hydroxynaphthalene-1,3,6-trisulfonic acid) and assayed to determine the effects on proliferation and cellular invasion. […] Tumor growth in athymic female mice is decreased when treated with ζ-Stat and the mouse body weight is maintained. Thus, PKC-ζ is identified herein as a novel target in carcinogenesis and inhibition of this protein decreases the rate of proliferation."}, "CCOC cells": {"test_system": "CCOC cells", "assay": "Wound healing / cellular invasion of CCOC cells", "assay_type": "cell-based", "description": "as §4"}, "[1]": {"assay": "Toxicity and body weight in xenograph mice (enzyme panel, body weight)", "assay_type": "in vivo", "description": "as §1, §2"}, "TOV21G cells": {"test_system": "TOV21G cells", "assay": "Proliferation of TOV21G cells treated with ζ-Stat (cellometer count, WST-1)", "assay_type": "cell-based", "conditions": "24, 48 and 72 hours, control DMSO", "description": "as §3, with “1A-1C.” for “2A-2C.”, “TOV21G” for “ES-2”, “1A)” for “2A)”, “1B)” for “2B)”, “1C)” for “2C)”\nas §4"}, "RhoA": {"test_system": "RhoA", "assay": "Protein and genomic expression of RhoA in TOV21G cells", "assay_type": "cell-based", "conditions": "72 hours", "description": "(§5) FIGS. 4A-4B. Protein expression of PKC-ζ and RhoA of TOV21G and ES-2 cells when treated for 72 hours with DMSO and ζ-Stat and genomic expression of RhoA in TOV21G. (FIG. 4A) TOV21G and ES-2 protein expression after 72 hours of treatment. (FIG. 4B) TOV21G genomic expression of RhoA with ζ-Stat treatment after 72 hours of treatment."}, "PKC-ι": {"molecular_target": "T1, PKC-ι (Homo sapiens, UniProt P41743)", "T1 construct": "endogenous in cells; host or cells: TOV21G and ES-2 cells", "T1 sequence (P41743 1-596)": "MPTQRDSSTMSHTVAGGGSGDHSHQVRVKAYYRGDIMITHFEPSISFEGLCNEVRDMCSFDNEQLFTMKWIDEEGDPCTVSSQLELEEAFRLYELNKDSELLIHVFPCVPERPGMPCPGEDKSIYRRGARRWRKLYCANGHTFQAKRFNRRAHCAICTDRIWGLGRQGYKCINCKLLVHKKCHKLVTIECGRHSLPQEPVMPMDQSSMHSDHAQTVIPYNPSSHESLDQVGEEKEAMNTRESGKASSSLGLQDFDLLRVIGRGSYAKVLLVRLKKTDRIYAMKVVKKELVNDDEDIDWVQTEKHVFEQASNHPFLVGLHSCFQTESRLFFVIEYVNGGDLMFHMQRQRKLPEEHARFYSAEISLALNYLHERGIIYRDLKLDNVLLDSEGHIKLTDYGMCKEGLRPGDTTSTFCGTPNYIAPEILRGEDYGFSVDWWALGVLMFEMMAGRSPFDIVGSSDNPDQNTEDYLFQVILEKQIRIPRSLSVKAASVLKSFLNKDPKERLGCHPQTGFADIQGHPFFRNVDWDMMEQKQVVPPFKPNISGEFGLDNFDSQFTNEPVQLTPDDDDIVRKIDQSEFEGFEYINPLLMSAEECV", "assay": "Protein expression of PKC-ι in TOV21G and ES-2 cells", "assay_type": "cell-based", "conditions": "protein and genomic studies", "description": "(§6) FIGS. 3A-3B. Protein expression of […] and […] of TOV21G and ES-2 cells when treated for 24, 48, and 72 hours with DMSO, ICA-1, and ζ-Stat. (FIG. 3A) TOV21G protein expression levels with treatments and quantified N=3. (FIG. 3B) ES-2 protein expression levels with treatments and quantified N=3."}, "PKC-ζ": {"molecular_target": "T2, PKC-ζ (Homo sapiens, UniProt Q05513)", "T2 construct": "Protein expression of PKC-ζ and RhoA of TOV21G and ES-2 cells when treated for 72 hours with DMSO and ζ-Stat; endogenous in cells; host or cells: TOV21G and ES-2 cells", "T2 sequence (Q05513 1-592)": "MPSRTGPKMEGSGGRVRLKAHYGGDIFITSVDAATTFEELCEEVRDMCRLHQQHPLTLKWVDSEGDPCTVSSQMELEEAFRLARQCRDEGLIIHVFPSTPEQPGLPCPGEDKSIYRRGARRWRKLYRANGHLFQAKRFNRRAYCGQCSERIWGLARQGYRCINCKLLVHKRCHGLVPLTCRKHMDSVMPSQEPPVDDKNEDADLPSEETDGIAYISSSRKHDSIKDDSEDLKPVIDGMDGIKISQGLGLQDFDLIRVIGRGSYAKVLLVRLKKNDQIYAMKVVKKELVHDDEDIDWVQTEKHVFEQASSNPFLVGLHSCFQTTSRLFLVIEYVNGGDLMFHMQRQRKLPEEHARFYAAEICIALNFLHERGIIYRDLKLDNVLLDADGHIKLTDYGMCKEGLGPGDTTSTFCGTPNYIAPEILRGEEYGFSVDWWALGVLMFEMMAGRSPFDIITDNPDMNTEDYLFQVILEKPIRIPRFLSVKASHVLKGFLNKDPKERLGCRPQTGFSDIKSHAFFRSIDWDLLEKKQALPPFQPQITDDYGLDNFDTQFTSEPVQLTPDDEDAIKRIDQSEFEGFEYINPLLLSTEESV", "assay": "Protein expression of PKC-ζ in TOV21G and ES-2 cells", "assay_type": "cell-based", "conditions": "protein and genomic studies", "description": "as §6, §5"}}, "note": "“Also recorded” adds a separate entry of the source."}
{"smiles": "O=S(=O)(O)c1cc(O)c2c(S(=O)(=O)O)cc(S(=O)(=O)O)cc2c1", "note": "[ζ-Stat, 8-hydroxynaphthalene-1,3,6-trisulfonic acid]", "values": [{"measurement": "tumor growth", "setting": "TOV21G xenographs", "result": "decreased; also recorded: reduced"}, {"measurement": "proliferation of ES-2 cells", "setting": "ES-2 cells", "result": "decreased"}, {"measurement": "wound healing", "setting": "CCOC cells", "result": "decreased wound healing"}, {"measurement": "mouse body weight", "setting": "[1]; athymic female mice treated with ζ-Stat", "result": "maintained"}, {"measurement": "toxic effect", "setting": "[1]; mice, 20 mg/kg, after 30 days of treatment", "result": "did not have a toxic effect"}, {"measurement": "proliferation of TOV21G cells", "setting": "TOV21G cells", "result": "decreased"}, {"measurement": "expression of RhoA at the genomic level", "setting": "RhoA", "result": "knocks down the expression of RhoA"}, {"measurement": "expression of RhoA at the protein level", "setting": "RhoA", "result": "knocks down the expression of RhoA"}, {"measurement": "expression of PKC-ι", "setting": "PKC-ι", "result": "not the expression of PKC-ι"}, {"measurement": "expression of PKC-ζ", "setting": "PKC-ζ", "result": "knocks down the expression of PKC-ζ"}]}
